What all share (type): in vivo
Assay [1] concerns Lolium perenne (LOLPE). In words: Post-emergence Test, LOLPE. As to conditions: sprayed after 8 days cultivation, 1000 g/ha, evaluated after 13 days. As for the experimental part:
(§1) Seeds of a variety of test species are sown in standard soil in pots (Amaranthus retoflexus (AMARE), Solarium nigrum (SOLNI), Setaria faberi (SETFA), Lolium perenne (LOLPE), Echinochloa crus-galli (ECHCG), Ipornoea hederacea (IPOHE)). After 8 days cultivation under controlled conditions in a glasshouse (at 24° C./16° C., day/night; 14 hours light; 65% humidity), the plants are sprayed with an aqueous spray solution derived from the formulation of the technical active ingredient in acetone/water (50:50) solution containing 0.5% Tween 20 (polyoxyethylene sorbitan monolaurate, CAS RN 9005-64-5). Compounds are applied at 1000 g/ha unless otherwise stated. The test plants are then grown in a glasshouse under controlled conditions in a glasshouse (at 24° C./16° C., day/night; 14 hours light; 65% humidity) and watered twice daily. After 13 days the test is evaluated for the percentage damage caused to the plant. The biological activities are shown in the following table on a five-point scale (5=81-100%; 4=61-80%; 3=41-60%; 2=21-40%; 1=10-20%; 0=0%; −=not tested).

Assay [2] relates to Lolium perenne (LOLPE). Briefly: Pre-emergence Test, LOLPE. As to conditions: 1000 g/ha, evaluated after 13 days.
Assay [3] relates to Setaria faberi (SETFA). In words: Post-emergence Test, SETFA. As to conditions: sprayed after 8 days cultivation, 1000 g/ha, evaluated after 13 days. Put shortly:
(§2)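 Pots sown with AMARE, SOLNI, SETFA, LOLPE, ECHCG, IPOHE, kept in glasshouse (24/16 °C, 14 h light, 65% humidity), sprayed at 1000 g/ha unless stated, in acetone/water 50:50 with 0.5% Tween 20. Damage scored after 13 days on a 0–5 scale (5=81–100%, 0=0%).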

The test system of assay [4] is Setaria faberi (SETFA). Briefly: Pre-emergence Test, SETFA. As to conditions: 1000 g/ha, evaluated after 13 days.
Assay [5] deals with Echinochloa crus-galli (ECHCG). In words: Post-emergence Test, ECHCG. As to conditions: sprayed after 8 days cultivation, 1000 g/ha, evaluated after 13 days. Put shortly:
as §2

In assay [6] the test system is Ipornoea hederacea (IPOHE). Briefly: Post-emergence Test, IPOHE. As to conditions: sprayed after 8 days cultivation, 1000 g/ha, evaluated after 13 days. Put shortly:
as §2

Assay [7] concerns Echinochloa crus-galli (ECHCG). Briefly: Pre-emergence Test, ECHCG. As to conditions: 1000 g/ha, evaluated after 13 days.
The subject of assay [8] is Amaranthus retoflexus (AMARE). In words: Post-emergence Test, AMARE. As to conditions: sprayed after 8 days cultivation, 1000 g/ha, evaluated after 13 days. Put shortly: as §2
Assay [9] deals with Solarium nigrum (SOLNI). Briefly: Pre-emergence Test, SOLNI. As to conditions: 1000 g/ha, evaluated after 13 days.
Assay [10] concerns Amaranthus retoflexus (AMARE). Briefly: Pre-emergence Test, AMARE. As to conditions: 1000 g/ha, evaluated after 13 days.
Assay [11] relates to Ipornoea hederacea (IPOHE). Briefly: Pre-emergence Test, IPOHE. As to conditions: 1000 g/ha, evaluated after 13 days.
Assay [12] has as its system Solarium nigrum (SOLNI). In words: Post-emergence Test, SOLNI. As to conditions: sprayed after 8 days cultivation, 1000 g/ha, evaluated after 13 days. As for the experimental part: as §1
For assay [13], the system named is ZEAMX. Briefly: Pre-emergence Test, ZEAMX. As to conditions: 1000 g/ha, evaluated after 13 days.
Assay [14] has as its system ZEAMX. Briefly: Post-emergence Test, ZEAMX. As to conditions: sprayed after 8 days cultivation, 1000 g/ha, evaluated after 13 days.
The subject of assay [15] is ABUTH. In words: Pre-emergence Test, ABUTH. As to conditions: 1000 g/ha, evaluated after 13 days.
Assay [16] relates to ABUTH. Briefly: Post-emergence Test, ABUTH. As to conditions: sprayed after 8 days cultivation, 1000 g/ha, evaluated after 13 days.

On to `CO/N=C(\C)c1cccc2c1c(=O)c(C(=O)OC)nn2-c1ccc(OC(F)(F)F)cc1` [Compound P1, methyl 5-[(E)-N-methoxy-C-methyl-carbonimidoyl]-4-oxo-1-[4-(trifluoromethoxy)phenyl] cinnoline-3-carboxylate], for which the “percentage damage caused to the plant, LOLPE” value in the assay on Lolium perenne (LOLPE) [1] and in the assay with Lolium perenne (LOLPE) [2] was 4 (4=61-80%) each time. In addition, the figures for the “percentage damage caused to the plant, SETFA” value with Setaria faberi (SETFA) [3] and with Setaria faberi (SETFA) [4] were 4 (4=61-80%) and 5 (5=81-100%), respectively. For the same compound, the “percentage damage caused to the plant, ECHCG” value in assay [5] and in assay [7] was 5 (5=81-100%) each time. In addition, the “percentage damage caused to the plant, IPOHE” value in assay [6] was 2 (2=21-40%); in assay [11], 1 (1=10-20%). The “percentage damage caused to the plant, AMARE” value in assay [8] is 2 (2=21-40%); in assay [10], 1 (1=10-20%). Moreover, the entries for the “percentage damage caused to the plant, SOLNI” value in the assay with Solarium nigrum (SOLNI) [9] and with Solarium nigrum (SOLNI) [12] were 1 (1=10-20%) and 3 (3=41-60%), respectively.

With `C=C(OC)c1cccc2c1c(=O)c(C(=O)OC)nn2-c1ccc(OC(F)(F)F)cc1` [Compound P4, methyl 5-(1-methoxyvinyl)-4-oxo-1-[4-(trifluoromethoxy)phenyl] cinnoline-3-carboxylate], the entries for the “percentage damage caused to the plant, LOLPE” value in the assay with Lolium perenne (LOLPE) [1] and in the assay with Lolium perenne (LOLPE) [2] were 4 (4=61-80%) and 5 (5=81-100%), respectively. In addition, the “percentage damage caused to the plant, SETFA” value with Setaria faberi (SETFA) [3] is on record as 4 (4=61-80%); in the assay on Setaria faberi (SETFA) [4], 5 (5=81-100%). For the same compound, the “percentage damage caused to the plant, ECHCG” value is recorded as 4 (4=61-80%) in assay [5] and 5 (5=81-100%) in assay [7]. Also, the “percentage damage caused to the plant, IPOHE” value in [6] is listed as 4 (4=61-80%); in assay [11] it was 0 (0=0%). The “percentage damage caused to the plant, AMARE” value in assay [8] and in [10] was 0 (0=0%) in each case. Further, the “percentage damage caused to the plant, SOLNI” value in the assay on Solarium nigrum (SOLNI) [9] and in the assay with Solarium nigrum (SOLNI) [12] was 0 (0=0%) in each case.

Consider `O=C(O)c1nn(-c2ccc(OC(F)(F)F)cc2)c2cccc(-c3ncco3)c2c1=O` [Compound P5, 5-oxazol-2-yl-4-oxo-1-[4-(trifluoromethoxy)phenyl] cinnoline-3-carboxylic acid], for which the “percentage damage caused to the plant, LOLPE” value with Lolium perenne (LOLPE) [1] was 2 (2=21-40%); in the assay on Lolium perenne (LOLPE) [2], 0 (0=0%). The figures for the “percentage damage caused to the plant, SETFA” value in the assay on Setaria faberi (SETFA) [3] and in the assay with Setaria faberi (SETFA) [4] were 4 (4=61-80%) and 1 (1=10-20%), respectively. The “percentage damage caused to the plant, ECHCG” value was 3 (3=41-60%) in assay [5] and 0 (0=0%) in assay [7]. For the same compound, the “percentage damage caused to the plant, IPOHE” value in assay [6] and in assay [11] was 0 (0=0%) in each case. Further, the entries for the “percentage damage caused to the plant, AMARE” value in [8] and in [10] were 1 (1=10-20%) and 0 (0=0%), respectively. For the same compound, the results for the “percentage damage caused to the plant, SOLNI” value with Solarium nigrum (SOLNI) [9] and in the assay on Solarium nigrum (SOLNI) [12] were 0 (0=0%) and 2 (2=21-40%), respectively.

With `COC(=O)c1nn(-c2ccc(OC(F)(F)F)cc2)c2cccc(-c3ccc(F)cc3)c2c1=O` [Compound P6, methyl 5-(4-fluorophenyl)-4-oxo-1-[4-(trifluoromethoxy)phenyl] cinnoline-3-carboxylate], the “percentage damage caused to the plant, LOLPE” value in the assay on Lolium perenne (LOLPE) [1] and with Lolium perenne (LOLPE) [2] was 0 (0=0%) in each case. Also, the “percentage damage caused to the plant, SETFA” value with Setaria faberi (SETFA) [3] and in the assay with Setaria faberi (SETFA) [4] was 0 (0=0%) throughout. Besides, the “percentage damage caused to the plant, ECHCG” value in assay [5] and in assay [7] was 0 (0=0%) in each case. Besides, the “percentage damage caused to the plant, IPOHE” value in assay [6] and in assay [11] was 0 (0=0%) throughout. Further, the “percentage damage caused to the plant, AMARE” value in [8] and in [10] was 0 (0=0%) each time. The “percentage damage caused to the plant, SOLNI” value with Solarium nigrum (SOLNI) [9] and in the assay on Solarium nigrum (SOLNI) [12] was 0 (0=0%) each time.

For the compound `COC(=O)c1nn(-c2ccc(OC(F)(F)F)cc2)c2cccc(C#N)c2c1=O` [Compound P7, methyl 5-cyano-4-oxo-1-[4-(trifluoromethoxy)phenyl] cinnoline-3-carboxylate], the “percentage damage caused to the plant, LOLPE” value in the assay on Lolium perenne (LOLPE) [1] and with Lolium perenne (LOLPE) [2] was 0 (0=0%) each time. Further, the “percentage damage caused to the plant, SETFA” value in the assay with Setaria faberi (SETFA) [3] and with Setaria faberi (SETFA) [4] was 1 (1=10-20%) each time. The “percentage damage caused to the plant, ECHCG” value in [5] is reported as 1 (1=10-20%); in assay [7] it was 2 (2=21-40%). Moreover, the “percentage damage caused to the plant, IPOHE” value in [6] and in assay [11] was 0 (0=0%) in each case. Besides, the “percentage damage caused to the plant, AMARE” value in assay [8] is given as 1 (1=10-20%); in assay [10], 0 (0=0%). Besides, the results for the “percentage damage caused to the plant, SOLNI” value with Solarium nigrum (SOLNI) [9] and in the assay on Solarium nigrum (SOLNI) [12] were 0 (0=0%) and 2 (2=21-40%), respectively.

As for `CC(=O)c1cccc2c1c(=O)c(C(=O)O)nn2-c1ccc(OC(F)(F)F)cc1` [Compound P10, 5-acetyl-4-oxo-1-[4-(trifluoromethoxy)phenyl] cinnoline-3-carboxylic acid], the “percentage damage caused to the plant, LOLPE” value in the assay on Lolium perenne (LOLPE) [1] and in the assay with Lolium perenne (LOLPE) [2] was 4 (4=61-80%) throughout. The “percentage damage caused to the plant, SETFA” value is reported as 4 (4=61-80%) with Setaria faberi (SETFA) [3] and 5 (5=81-100%) in the assay on Setaria faberi (SETFA) [4]. The figures for the “percentage damage caused to the plant, ECHCG” value in [5] and in assay [7] were 4 (4=61-80%) and 5 (5=81-100%), respectively. For the same compound, the “percentage damage caused to the plant, IPOHE” value in [6] was 4 (4=61-80%); in assay [11], 0 (0=0%). The “percentage damage caused to the plant, AMARE” value in assay [8] and in [10] was 1 (1=10-20%) throughout. Besides, the “percentage damage caused to the plant, SOLNI” value is recorded as 1 (1=10-20%) in the assay with Solarium nigrum (SOLNI) [9] and 4 (4=61-80%) in the assay with Solarium nigrum (SOLNI) [12].

As to `O=C(O)c1nn(-c2ccc(Cl)cc2)c2cccc(Oc3ccc(F)cc3)c2c1=O` [Compound P11, 1-(4-chlorophenyl)-5-(4-fluorophenoxy)-4-oxo-cinnoline-3-carboxylic acid], the “percentage damage caused to the plant, LOLPE” value with Lolium perenne (LOLPE) [1] and in the assay on Lolium perenne (LOLPE) [2] was 0 (0=0%) each time. The “percentage damage caused to the plant, SETFA” value in the assay on Setaria faberi (SETFA) [3] and with Setaria faberi (SETFA) [4] was 0 (0=0%) throughout. The “percentage damage caused to the plant, ECHCG” value in assay [5] and in assay [7] was 0 (0=0%) in each case. Further, the “percentage damage caused to the plant, IPOHE” value in assay [6] and in assay [11] was 0 (0=0%) each time. For the same compound, the “percentage damage caused to the plant, AMARE” value in assay [8] is given as 5 (5=81-100%); in [10] it was 3 (3=41-60%). For the same compound, the “percentage damage caused to the plant, SOLNI” value was 5 (5=81-100%) in the assay with Solarium nigrum (SOLNI) [9] and 1 (1=10-20%) in the assay with Solarium nigrum (SOLNI) [12].

Regarding `CCOC(=O)c1nn(-c2ccc(OC(F)(F)F)cc2)c2cccc(C#N)c2c1=O` [Compound P38, ethyl 5-cyano-4-oxo-1-[4-(trifluoromethoxy)phenyl] cinnoline-3-carboxylate], the “percentage damage caused to the plant, ZEAMX” value in the assay with ZEAMX [13] and in the assay on ZEAMX [14] was 2 (2=21-40%) throughout. Moreover, the figures for the “percentage damage caused to the plant, SETFA” value in the assay with Setaria faberi (SETFA) [3] and in the assay on Setaria faberi (SETFA) [4] were 4 (4=61-80%) and 5 (5=81-100%), respectively. The “percentage damage caused to the plant, ECHCG” value in assay [5] and in [7] was 5 (5=81-100%) each time. Moreover, the figures for the “percentage damage caused to the plant, IPOHE” value in assay [6] and in assay [11] were 3 (3=41-60%) and 1 (1=10-20%), respectively. Besides, the “percentage damage caused to the plant, ABUTH” value in the assay on ABUTH [15] was 0 (0=0%); in the assay on ABUTH [16] it was 1 (1=10-20%). Further, the “percentage damage caused to the plant, AMARE” value in assay [8] and in assay [10] was 3 (3=41-60%) each time.

For the origin of these results see patent publication US12649722B2, “Herbicidal cinnoline derivatives” (SYNGENTA CROP PROTECTION AG, priority 2020, dated 2026).
